One assay addresses T1, VaAly17A (Vibrio alginolyticus, UniProt A0A2I3CRJ2).
T1 construct: gene N646_4459; N-terminal His tag, E. coli BL21(DE3), plasmid pZLZ04; no signal peptide predicted; theoretical 81,525 Da
T1 sequence (A0A2I3CRJ2 1-721): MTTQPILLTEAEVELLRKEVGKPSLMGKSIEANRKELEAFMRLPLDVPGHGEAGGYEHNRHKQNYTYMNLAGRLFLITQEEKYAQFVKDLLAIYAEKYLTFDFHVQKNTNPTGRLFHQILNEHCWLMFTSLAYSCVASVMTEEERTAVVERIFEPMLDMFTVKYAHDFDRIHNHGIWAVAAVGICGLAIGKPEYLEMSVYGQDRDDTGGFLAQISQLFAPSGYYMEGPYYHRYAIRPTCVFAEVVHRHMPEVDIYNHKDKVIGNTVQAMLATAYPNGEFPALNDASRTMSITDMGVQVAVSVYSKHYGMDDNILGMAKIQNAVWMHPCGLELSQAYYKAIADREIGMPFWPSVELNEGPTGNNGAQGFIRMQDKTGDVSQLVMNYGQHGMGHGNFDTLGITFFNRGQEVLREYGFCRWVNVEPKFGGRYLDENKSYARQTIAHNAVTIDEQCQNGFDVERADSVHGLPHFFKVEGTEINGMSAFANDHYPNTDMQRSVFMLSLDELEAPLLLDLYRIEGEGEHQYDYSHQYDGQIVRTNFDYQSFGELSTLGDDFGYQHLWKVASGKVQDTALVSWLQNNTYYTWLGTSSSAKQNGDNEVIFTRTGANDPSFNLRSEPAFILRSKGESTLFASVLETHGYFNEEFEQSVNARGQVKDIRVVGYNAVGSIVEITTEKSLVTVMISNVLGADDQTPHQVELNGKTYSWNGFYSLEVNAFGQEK
Kind of assay: TBA assay, TLC, gel filtration HPLC, ESI-MS. Type of assay: biochemical. The following applies: pH 8.0, 200 mM NaCl, 30 °C, 0.3% substrate; exolytic, from the nonreducing end.

The next assay addresses T2, VaAly17B (Vibrio alginolyticus, UniProt A0A2I3CRW2).
T2 construct: gene N646_4460; N-terminal His tag, E. coli BL21(DE3), plasmid pZLZ05; no signal peptide predicted; theoretical 81,023 Da
T2 sequence (A0A2I3CRW2 1-721): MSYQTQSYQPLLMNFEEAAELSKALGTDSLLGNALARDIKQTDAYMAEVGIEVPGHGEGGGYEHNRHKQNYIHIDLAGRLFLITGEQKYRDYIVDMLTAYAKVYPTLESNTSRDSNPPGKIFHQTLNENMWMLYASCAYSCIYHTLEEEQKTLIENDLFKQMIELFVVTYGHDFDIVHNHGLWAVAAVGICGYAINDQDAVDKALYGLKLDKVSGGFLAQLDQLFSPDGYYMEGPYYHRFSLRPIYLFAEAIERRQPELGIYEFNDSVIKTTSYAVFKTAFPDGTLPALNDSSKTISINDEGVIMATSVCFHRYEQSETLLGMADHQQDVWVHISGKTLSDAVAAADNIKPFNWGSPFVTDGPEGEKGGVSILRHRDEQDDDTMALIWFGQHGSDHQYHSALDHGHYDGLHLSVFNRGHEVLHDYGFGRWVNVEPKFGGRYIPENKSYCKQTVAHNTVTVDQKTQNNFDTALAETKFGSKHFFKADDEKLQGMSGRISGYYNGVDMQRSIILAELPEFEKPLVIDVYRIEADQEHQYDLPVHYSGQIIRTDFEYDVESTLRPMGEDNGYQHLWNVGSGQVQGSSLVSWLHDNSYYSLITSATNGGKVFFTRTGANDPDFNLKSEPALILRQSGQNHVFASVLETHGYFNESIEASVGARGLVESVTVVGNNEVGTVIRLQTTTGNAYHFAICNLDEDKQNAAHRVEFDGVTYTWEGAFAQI
Kind of assay: TBA assay, TLC, gel filtration HPLC, ESI-MS. The assay is classed as biochemical. The following applies: pH 8.0, 200 mM NaCl, 20 °C, 0.3% substrate. (SEC sorts molecules by how far they enter the pores of the column.)

Data on two compounds can be found in publication PMC12336832, “A key loop in the catalytic pocket of the PL17 family of alginate lyases determines minimal substrate recognition” (The Journal of Biological Chemistry, 2025).

With `O=C(O)[C@H]1O[C@@H](O[C@H]2[C@H](O)[C@H](O)[C@H](O[C@H]3[C@H](O)[C@H](O)C(O)O[C@@H]3C(=O)O)O[C@@H]2C(=O)O)[C@@H](O)[C@@H](O)[C@@H]1O` (some centres unmarked) [M3, Trimer-M3], on VaAly17A, the specific activity entry is listed as “unsaturated M2 was produced when M3 was used as the substrate”.
For `O=C(O)[C@H]1O[C@@H](O[C@H]2[C@H](O)[C@H](O)C(O)O[C@@H]2C(=O)O)[C@@H](O)[C@@H](O)[C@@H]1O` (some centres unmarked) [M2, Dimer-M2], on VaAly17B, the specific activity result was “VaAly17B could degrade M2 into monomers”.
